Laboratory results: patent US9464326B2, “Total and phosphorylated IL-1 receptor-associated kinase-1 and IL-1 receptor-associated kinase-4 as a biomarker for cancer progression and chemotherapy resistance” (University of Maryland, Baltimore, priority 2012, dated 2016)

Tested on: CCRF-CEM cells
Test: Cell number and apoptosis assays
Type: cell-based, human
Details: IRAK-1,-4 inhibitor 0-20 μM plus titrated drug, apoptosis by 7AAD at 48 hours, FIG. 23
Experimental: TLR ligands were diluted 2-fold. Cell lines (25-40×10^3/well) were cultured for 54 hours, whereas fresh patient-derived T-ALL cells (200×10^3/well) were cultured for 30 hours prior to adding [^3H]-thymidine for 18 hours. After this time point, cells were harvested with a Packard Filter-Mate-96 cell harvester (Perkin Elmer, Waltham, Mass., USA) and counted on Packard Top Count-NXT (Perkin Elmer, Waltham, Mass., USA). Results were expressed as average counts per minute (cpm). In some experiments CCRF-CEM cells were pre-treated with TLR1-TLR2 ligand (Pam3CysK4; 2.5 ug/ml) for 48 hrs, washed, and then cultured in the presence of varying concentrations of FBS. Forty-eight hours later, proliferation (±SD) was determined by ^3H-thymidine incorporation. Alternatively, apoptosis was measured by flow cytometry after staining cells with Annexin-V (BD Pharmingen, San Diego, Calif., USA) and propidium iodide (Sigma). Cell number was counted under microscopy by staining cells with trypan blue.
CCRF-CEM cells were treated with IRAK-1,-4 inhibitor for 24, 48, 72, and 96 hours.
The T-ALL cell line CCRF-CEM was cultured in the presence of 0, 1.2, 5, 10, and 20 μM IRAK-1,-4 inhibitor. (FIG. 23). To each concentration of IRAK-1,-4 inhibitor titrating doses of ABT-737 (1000→15 nM) vincristine, VS (10→0.1 nM), and paclitaxol, PAC (100→1.5 nM). […] Apoptosis was measure 48 hours later by staining cells with 7AAD and analyzed by flow cytometry.

CC(=O)O[C@H]1C(=O)[C@@]2(C)[C@H]([C@H](OC(=O)c3ccccc3)[C@]3(O)C[C@H](OC(=O)[C@H](O)[C@@H](NC(=O)c4ccccc4)c4ccccc4)C(C)=C1C3(C)C)[C@]1(OC(C)=O)CO[C@@H]1C[C@@H]2O [paclitaxel]
synergy with IRAK-1,-4 inhibitor: synergy

CN(C)CC[C@H](CSc1ccccc1)Nc1ccc(S(=O)(=O)NC(=O)c2ccc(N3CCN(Cc4ccccc4-c4ccc(Cl)cc4)CC3)cc2)cc1[N+](=O)[O-] [ABT-737]
synergy with IRAK-1,-4 inhibitor: synergy
